Test results reported in US8512709B2, “Modified amyloid β peptide” (The Chemo-Sero-Therapeutic Research Institue, priority 2008, dated 2013).

System: Aβ peptide (1-40 amino acid sequence)
Test: Anti-Aβ IgG antibody titer of murine serum after immunization with Aβ peptides (ELISA on immobilized Aβ 1-40)
Format: in vivo, C57BL/6 mice
Conditions: for Antibody titer Animal No. 1 / Antibody titer Animal No. 2 / Antibody titer Animal No. 3 / Antibody titer Animal No. 4: C57BL/6 mouse serum, Day 7 from final 3rd immunization; for Antibody titer Animal No. 1 / Antibody titer Animal No. 2 / Antibody titer Animal No. 3 / Antibody titer Animal No. 4 / Antibody titer Mean: 100 μg/mouse; for Antibody titer Mean: mean of 4 mice, serum Day 7 from final 3rd immunization
[1] = Example 2, result in words on Table 2

Sequence | Antibody titer Animal No. 1 (Example 2) [ng/mL] | Antibody titer Animal No. 2 (Example 2) [ng/mL] | Antibody titer Animal No. 3 (Example 2) [ng/mL] | Antibody titer Animal No. 4 (Example 2) [ng/mL] | Antibody titer Mean (Example 2) [ng/mL] | induction of an antibody to Aβ [1] | further results
DAEFRHDSGYAIIGLMVGGVVIAC [1-10•30-42AACys, 1-10+30-42-amino acid Aβ peptide with addition of Cysteine] |  |  |  |  |  |  | Antibody titer Animal No. 1 (Example 1): 9 ng/mL; Antibody titer Animal No. 2 (Example 1): 7 ng/mL; Antibody titer Animal No. 3 (Example 1): 11 ng/mL; Antibody titer Animal No. 4 (Example 1): 8 ng/mL; Antibody titer Mean (Example 1): 8.4 ng/mL
DAEFRHDSGYKGAIIGLMVGGVVC [1-10•28-40AACys, 1-10+28-40-amino acid Aβ peptide with addition of Cysteine] | 4560 | 148622 | 5118 | 4988 | 40822.0 | observed | 
DAEFRHDSGYEVHHQKLVKGAIIGLMVG [1-18•28-37AA, reference compound] |  |  |  |  |  |  | Antibody titer Animal No. 1 (Example 8): 11 ng/mL; Antibody titer Animal No. 2 (Example 8): 11 ng/mL; Antibody titer Animal No. 3 (Example 8): 11 ng/mL; Antibody titer Animal No. 4 (Example 8): 9 ng/mL; Antibody titer Mean (Example 8): 10.5 ng/mL
DAEFRHDSGYKGAIIGLMVGC [1-10•28-37AACys, 1-10+28-37-amino acid Aβ peptide with addition of Cysteine] | 79708 | 1531 | 24694 | 100619 | 51638.0 | observed | 
EFRHDSGYKGAIIGLMVGC (added cysteine) [3-10•28-37AACys, 3-10+28-37-amino acid Aβ peptide with addition of Cysteine] |  |  |  |  |  |  | Antibody titer Animal No. 1 (Example 4): 3203 ng/mL; Antibody titer Animal No. 2 (Example 4): 1456 ng/mL; Antibody titer Animal No. 3 (Example 4): 4500 ng/mL; Antibody titer Animal No. 4 (Example 4): 52 ng/mL; Antibody titer Mean (Example 4): 2302.8 ng/mL; induction of an antibody to Aβ (Example 4, result in words on Table 4): observed
DAEFRHDSGYKGAIIGLMVGGVVIC [1-10•28-41AACys, 1-10+28-41-amino acid Aβ peptide with addition of Cysteine] | 292 | 1000 | 48460 | 422012 | 117941.1 | observed | 
DAEFRHDSGYKGAIIGLMVC [1-10•28-36AACys, 1-10+28-36-amino acid Aβ peptide with addition of Cysteine] | 11821 | 259763 | 77 | 44922 | 79145.6 | observed | 
